According to PubChem BioAssay AID248 (DTP/NCI, 2004):
Values joined by “and” are separate entries in the source; they are usually repeats but may differ in a detail not shown here. Equal values may be shown once. Toxic doses and inconclusive results are not listed. No stated cut-off is given here; in the data, active means T/C of 150% or more; inactive means T/C below 125%.

System: L1210 leukemia ip in BDF1 mice, survival T/C
Assay: NCI In Vivo Anticancer Drug Screen. Data for tumor model L1210 Leukemia (intraperitoneal) in B6D2F1 (BDF1) mice
Conditions: endpoint: mean survival time, higher = longer survival
Outline: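 Survival endpoint. Drug-treated group vs vehicle group, expressed as T divided by C. Tumor passaged by transplantation.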

[1] = dose: 100.0 mg/kg/injection, schedule: Q01DX001 (ip), vehicle: carboxymethylcellulose (CMC)
[2] = dose: 200.0 mg/kg/injection, schedule: Q01DX001 (ip), vehicle: carboxymethylcellulose (CMC)
[3] = dose: 400.0 mg/kg/injection, schedule: Q01DX001 (ip), vehicle: carboxymethylcellulose (CMC)
[4] = dose: 100.0 mg/kg/injection, schedule: Q01DX009 (ip), vehicle: saline with Tween-80
[5] = dose: 200.0 mg/kg/injection, schedule: Q01DX009 (ip), vehicle: saline with Tween-80
[6] = dose: 400.0 mg/kg/injection, schedule: Q01DX009 (ip), vehicle: saline with Tween-80
[7] = dose: 100.0 mg/kg/injection, schedule: Q04DX003 (ip), vehicle: saline
[8] = dose: 200.0 mg/kg/injection, schedule: Q04DX003 (ip), vehicle: saline
[9] = dose: 400.0 mg/kg/injection, schedule: Q04DX003 (ip), vehicle: saline
[10] = dose: 100.0 mg/kg/injection, schedule: Q01DX001 (ip), vehicle: saline
[11] = dose: 200.0 mg/kg/injection, schedule: Q01DX001 (ip), vehicle: saline
[12] = dose: 400.0 mg/kg/injection, schedule: Q01DX001 (ip), vehicle: saline
[13] = dose: 50.0 mg/kg/injection, schedule: Q01DX001 (ip), vehicle: saline
[14] = dose: 100.0 mg/kg/injection, schedule: Q04DX003 (ip), vehicle: saline with Tween-80
[15] = dose: 200.0 mg/kg/injection, schedule: Q04DX003 (ip), vehicle: saline with Tween-80
[16] = dose: 100.0 mg/kg/injection, schedule: Q01DX001 (ip), vehicle: saline with Tween-80
[17] = dose: 200.0 mg/kg/injection, schedule: Q01DX001 (ip), vehicle: saline with Tween-80
[18] = dose: 400.0 mg/kg/injection, schedule: Q04DX003 (ip), vehicle: saline with Tween-80

Measured: T/C

Brc1ccc(-c2csc(Nc3nc(-c4ccc(Br)cc4)cs3)n2)cc1
inactive: [1] 102 % of control | [2] 98 % of control | dose: 250.0 mg/kg/injection, schedule: Q01DX015 (ip), vehicle: carboxymethylcellulose (CMC) 100 % of control | [3] 107 % of control | dose: 500.0 mg/kg/injection, schedule: Q01DX015 (ip), vehicle: carboxymethylcellulose (CMC) 100 % of control | dose: 750.0 mg/kg/injection, schedule: Q01DX015 (ip), vehicle: carboxymethylcellulose (CMC) 113 % of control | dose: 1000.0 mg/kg/injection, schedule: Q01DX015 (ip), vehicle: carboxymethylcellulose (CMC) 100 % of control

Cn1cccc1C=O
inactive: [4] 102 % of control | [5] 100 % of control | [6] 97 % of control

O=[N+]([O-])C1C=CCS1(=O)=O (stereo not given)
inactive: [7] 95 % of control | [8] 96 % of control | [9] 86 % of control

CCNc1ncnc2c1cnn2C
inactive: [10] 95 % of control | [11] 103 % of control | [12] 114 % of control

Cc1ccc(C[n+]2cc([O-])on2)cc1C
inactive: dose: 100.0 mg/kg/injection, schedule: Q01DX Z (ip), vehicle: saline 105 % of control | dose: 200.0 mg/kg/injection, schedule: Q01DX Z (ip), vehicle: saline 93 % of control

NC(=S)NN=C1CCCCCCC1
inactive: dose: 8.4 mg/kg/injection, schedule: Q01DX Z (ip), vehicle: methylcellulose (MC) 98 % of control | dose: 23.0 mg/kg/injection, schedule: Q01DX Z (ip), vehicle: methylcellulose (MC) 101 % of control | dose: 39.0 mg/kg/injection, schedule: Q01DX Z (ip), vehicle: methylcellulose (MC) 111 % of control

CCCC[P+](CCCC)(CCCC)CCCC
inactive: dose: 5.0 mg/kg/injection, schedule: Q01DX001 (ip), vehicle: saline 102 % of control | dose: 6.25 mg/kg/injection, schedule: Q04DX002 (ip), vehicle: Klucel (hydroxypropylcellulose) (HPC) 89 % of control | dose: 10.0 mg/kg/injection, schedule: Q01DX001 (ip), vehicle: saline 123 % of control | dose: 12.5 mg/kg/injection, schedule: Q04DX002 (ip), vehicle: Klucel (hydroxypropylcellulose) (HPC) 103 % of control | dose: 20.0 mg/kg/injection, schedule: Q01DX001 (ip), vehicle: saline 104 % of control | dose: 25.0 mg/kg/injection, schedule: Q04DX002 (ip), vehicle: Klucel (hydroxypropylcellulose) (HPC) 95 % of control and 104 % of control

CCN(CC)CCCC(C)Nc1c(C)cnc2cc(Cl)c(C)cc12 (stereo not given)
inactive: [13] 112 % of control | [10] 95 % of control | [11] 101 % of control

O=C(n1ccnc1)C(F)(F)C(F)(F)C(F)(F)F
inactive: dose: 100.0 mg/kg/injection, schedule: Q01DX001 (ip), vehicle: saline sonified 101 % of control | [7] 96 % of control | dose: 200.0 mg/kg/injection, schedule: Q01DX001 (ip), vehicle: saline sonified 110 % of control | [8] 96 % of control | dose: 400.0 mg/kg/injection, schedule: Q01DX001 (ip), vehicle: saline sonified 106 % of control | [9] 89 % of control

CCCCCCCCOB(OCCCCCCCC)OCCCCCCCC
inactive: dose: 50.0 mg/kg/injection, schedule: Q01DX001 (ip), vehicle: carboxymethylcellulose (CMC) 96 % of control | [1] 100 % of control | [4] 96 % of control | [14] 98 % of control | [2] 96 % of control | [5] 95 % of control | [15] 94 % of control | [3] 100 % of control

Cn1c2ccccc2c(=O)c2cc(N)ccc21
inactive: [7] 95 % of control | [8] 98 % of control | [9] 104 % of control

CCC1(c2ccccc2)C(=O)N(CBr)C(=O)N(CBr)C1=O
inactive: [4] 90 % of control | dose: 100.0 mg/kg/injection, schedule: Q04DX002 (ip), vehicle: saline with Tween-80 92 % of control | dose: 200.0 mg/kg/injection, schedule: Q04DX002 (ip), vehicle: saline with Tween-80 100 % of control

CC1(C)C[N+](C)(Cc2ccccc2)N=C1[O-] (stereo not given)
inactive: dose: 25.0 mg/kg/injection, schedule: Q01DX001 (ip), vehicle: saline 94 % of control | [13] 94 % of control | [10] 94 % of control | [11] 102 % of control

O=C(Nc1cccc(F)c1)Nc1cc([N+](=O)[O-])ccc1Cl
inactive: dose: 100.0 mg/kg/injection, schedule: Q01DX009 (ip), vehicle: Klucel (hydroxypropylcellulose) (HPC) 97 % of control | dose: 200.0 mg/kg/injection, schedule: Q01DX009 (ip), vehicle: Klucel (hydroxypropylcellulose) (HPC) 94 % of control | dose: 400.0 mg/kg/injection, schedule: Q01DX009 (ip), vehicle: Klucel (hydroxypropylcellulose) (HPC) 94 % of control and 97 % of control

CC1=NN(c2cccc([N+](=O)[O-])c2)C(=O)C1
inactive: [16] 96 % of control | [17] 96 % of control | dose: 400.0 mg/kg/injection, schedule: Q01DX001 (ip), vehicle: saline with Tween-80 98 % of control

CN(C)Cc1ccccc1COC(=O)c1ccc([N+](=O)[O-])cc1Cl
inactive: dose: 100.0 mg/kg/injection, schedule: Q04DX002 (ip), vehicle: Klucel (hydroxypropylcellulose) (HPC) 102 % of control | dose: 200.0 mg/kg/injection, schedule: Q04DX002 (ip), vehicle: Klucel (hydroxypropylcellulose) (HPC) 109 % of control | dose: 400.0 mg/kg/injection, schedule: Q04DX002 (ip), vehicle: Klucel (hydroxypropylcellulose) (HPC) 94 % of control

[O-]/[N+](=C\c1ccc(OCc2ccccc2)cc1)c1ccccc1
inactive: [13] 102 % of control | [10] 102 % of control | [11] 108 % of control | [12] 90 % of control

C/C(CCl)=N\Nc1ccc([N+](=O)[O-])cc1[N+](=O)[O-]
inactive: [16] 101 % of control | [17] 98 % of control

C=CCO[Si](OCC=C)(OCC=C)OCC=C
inactive: dose: 75.0 mg/kg/injection, schedule: Q01DX001 (ip), vehicle: other 101 % of control | dose: 150.0 mg/kg/injection, schedule: Q01DX001 (ip), vehicle: other 98 % of control

O=C1OCCC1[P+](c1ccccc1)(c1ccccc1)c1ccccc1 (stereo not given)
inactive: [10] 88 % of control

Cc1cc2c(cc1C)/C(=N\O)CCCC2
inactive: [14] 110 % of control | [15] 92 % of control | [18] 94 % of control

CCOC(=O)C(C(=O)OCC)C(C)(C)c1ccccc1
inactive: dose: 100.0 mg/kg/injection, schedule: Q01DX009 (ip), vehicle: saline 104 % of control | dose: 200.0 mg/kg/injection, schedule: Q01DX009 (ip), vehicle: saline 103 % of control | dose: 400.0 mg/kg/injection, schedule: Q01DX009 (ip), vehicle: saline 101 % of control

O=C(O)CC(C[N+](=O)[O-])C(F)(F)C(F)(F)C(F)(F)F (stereo not given)
inactive: [10] 97 % of control | [11] 112 % of control | [12] 101 % of control

COc1ccc(C2OCC(CCl)O2)cc1 (stereo not given)
inactive: dose: 55.0 mg/kg/injection, schedule: Q01DX Z (ip), vehicle: methylcellulose (MC) 109 % of control | dose: 83.0 mg/kg/injection, schedule: Q01DX Z (ip), vehicle: methylcellulose (MC) 103 % of control | dose: 125.0 mg/kg/injection, schedule: Q01DX Z (ip), vehicle: methylcellulose (MC) 101 % of control

O=[n+]1ccn2cc3ccccc3cc2c1
inactive: dose: 12.5 mg/kg/injection, schedule: Q01DX009 (ip), vehicle: saline with Tween-80 105 % of control

NCC(Cc1ccc(O)cc1)P(=O)(O)O (stereo not given)
inactive: [7] 100 % of control | [8] 95 % of control | [9] 92 % of control

O=c1[nH]c(=O)c2ncsc2[nH]1
inactive: [14] 103 % of control | [15] 110 % of control

COc1ccccc1-n1c(O)c(N=Nc2ccc(Br)cc2)c(=O)n(-c2ccccc2)c1=S
inactive: dose: 100.0 mg/kg/injection, schedule: Q01DX001 (ip), vehicle: Klucel (hydroxypropylcellulose) (HPC) 102 % of control | dose: 200.0 mg/kg/injection, schedule: Q01DX001 (ip), vehicle: Klucel (hydroxypropylcellulose) (HPC) 121 % of control | dose: 400.0 mg/kg/injection, schedule: Q01DX001 (ip), vehicle: Klucel (hydroxypropylcellulose) (HPC) 102 % of control

CCOC(=O)C(=CNc1ccccc1OC)C(=O)OCC
inactive: dose: 50.0 mg/kg/injection, schedule: Q01DX009 (ip), vehicle: saline with Tween-80 95 % of control | [4] 102 % of control | [14] 98 % of control | [5] 106 % of control | [15] 110 % of control | [6] 98 % of control | [18] 102 % of control
